Reference: patent US20160279207A1, “TARGETING GDF6 AND BMP SIGNALING FOR ANTI-MELANOMA THERAPY” (University of Massachusetts, priority 2015, published 2016)
“Also recorded” adds a separate entry of the source.

B1: recombinant GDF6 protein: recombinant GDF6 protein added to culture media (protein, UniProt Q6KF10 336-455, looked up)
Growth/differentiation factor …: TAFASRHGKRHGKKSRLRCSKKPLHVNFKELGWDDWIIAPLEYEAYHCEGVCDFPLRSHLEPTNHAIIQTLMNSMDPGSTPPSCCVPTKLTPISILYIDAGNNVVYKQYEDMVVESCGCR

Legend:
A375 melanoma cells [1] = assay: Apoptosis markers: Annexin5 staining and Caspase 3/7 cleavage; assay type: cell-based, human; settings: vs shGFP
Method: A375 melanoma cells after knockdown of GDF6 or SMAD1 or EGFP were stained for Annexin V and 7-AAD (BD Pharmingen PR Annexin V Apoptosis Detection kit) as per manufacturer's instructions, followed by flow cytometry using a FACSCalibur instrument (BD Biosciences). Caspase3/7 activity was measured using the Caspase-Glo 3/7 assay (Promega) as per manufacturer's instructions.

GDF6 = assay: Western blot of GDF6 protein after shRNA knockdown; assay type: cell-based, human; settings: melanoma cells, vs shGFP control
Method: Lentiviral infections were performed as described previously (C. J. Ceol et al., The histone methyltransferase SETDB 1 is recurrently amplified in melanoma and accelerates its onset. (Nature 471, 513-517 (2011)). For stable gene knockdowns, we used pLKO-1 lentiviral vectors to deliver short hairpin sequences (shRNAs) (obtained from the RNAi Consortium (TRC)/Broad Institute through the UMMS RNAi core facility) specific for GDF6 (GDF6.1: TRCN0000141818, target sequence: […] (SEQ ID NO:10); GDF6.2: TRCN0000140097, target sequence: […] (SEQ ID NO:11)) or SMAD1 (SMAD1.1: TRCN0000021781, target sequence: […] (SEQ ID NO:12); SMAD1.2: TRCN0000021782, target sequence: […] (SEQ ID NO:13)) or EGFP (TRCN0000072181, target sequence: […] (SEQ ID NO:14)). Virus was made using a second generation lentiviral packaging system in HEK293T cells and titrated using a p24 ELISA kit (Clontech). Cells were infected with virus at a multiplicity of infection of 2.5 with 8 μg/ml polybrene followed by puromycin selection (2 μm/ml) for 2 days in appropriate media. For overexpression, we used Gateway cloning (Life Technologies) to insert the GDF6 ORF (GE life sciences) or SMAD1DVD ORF (provided by Takenobu Katagiri) into the pLenti CMV Hygro DEST (w117-1) vector (provided by Paul Kaufman). […]

A375 melanoma cells [2] = assay: A375 melanoma xenograft in nude mice, tumor volume; assay type: in vivo, mouse; settings: for tumor formation (tumor volume) of shRNA-treated cells xenotransplanted into mice: A375 cells treated with shRNA before transplantation, vs shGFP/shEGFP; for xenograft tumor formation, SMAD1 phosphomimic cells: SMAD1DVD cells with GDF6 knocked down; for xenograft tumor formation, empty vector-transfected cells: empty vector cells with GDF6 knocked down
Method: An art-accepted model to test for an agent's effects on melanoma is that of using immunocompromised (“nude”) mice which are then injected subcutaneously with melanoma cells, and then concomitant with injection of the cells, sometime after injection, and/or after tumor establishment, the test agent is appropriately administered (e.g., intravenously, peritoneally, orally, etc.). Control and treated animals are monitored in part for tumor growth, tumor stabilization, and tumor regression (see for example, Yang et al. 2010. Cancer Res., 70:5518-5527 and Bollag et al. 2010. Nature. 467:596-599).
All animal protocols were approved by the UMMS Institution Animal Care and Use Committee (A-2016, A-2171). Mice were randomly allocated to individual experimental groups. No blinding was done as animal groups were identified by tagging and cage labeling. Animals were excluded, according to pre-established criteria, if the tumor volume reached >1,000 mm^3; if tumor size or location affected the mobility or general health of animal, the animal was euthanized and excluded from the experiment or the complete experiment was terminated. A375 cells stably expressing an EGFP or GDF6 or SMAD1 shRNA and/or empty vector or GDF6-expressing vector or SMAD1DVD-overexpressing vector were subcutaneously injected into the flanks of 6-8-week-old BALB/c nu/nu female mice (Taconic Farms) to produce orthotopic primary tumor. Primary tumor growth was monitored every 3 days with calipers, and the tumor volume was calculated as described previously (C. Gazin, N. Wajapeyee, S. Gobeil, C. M. Virbasius, M. R. Green, An elaborate pathway required for Ras-mediated epigenetic silencing. Nature 449, 1073-1077 (2007)). For GDF6 knockdown, SMAD1 knockdown and epistasis experiments, 1×10^7 live cells were injected. For GDF6 overexpression experiments, 1×10^6 live cells were injected. For GDF6 overexpression and GDF6 knockdowns, a representative of two independent experiments (n=3 animals per experiment) is shown. For DMH1 drug experiments, 1×10^6 live A375 cells were subcutaneously injected in the flanks of BALB/c nu/nu female mice. Beginning on the day cells were injected, mice were injected intraperitoneally with vehicle 12.5% 2-hydroxypropyl-β-cyclodextrin or 25 mg/kg DMH1 in vehicle every other day. The growth of the tumor was monitored as described above. This experiment was repeated twice and the weighted average of both experiments (n=8 total) is represented.

A375 melanoma cells [3] = assay: Clonogenic growth (colony formation) assay; assay type: cell-based, human; settings: for colonies in clonogenic growth assay after shRNA treatment: A375 cells, crystal violet staining; for colonies in clonogenic growth assay after shRNA treatment / colonies in clonogenic growth assay, empty vector-transfected cells: vs shGFP; for colonies in clonogenic growth assay, cells expressing SMAD1 phosphomimic (SMAD1DVD): SMAD1DVD cells treated with shRNA; for colonies in clonogenic growth assay, empty vector-transfected cells: empty vector cells treated with shRNA
Method: For growth curves 50,000 live cells were seeded per well in a 6-well tissue culture plate on day 0. The numbers of live cells were calculated every day using an automated cell counter (Nexcelom Bioscience Cellometer Auto T4) following standard procedures. All assays were performed with technical replicates. For clonogenic assays, 3,000 live cells were seeded in a 10 cm tissue culture plate. […] ImageJ was used to quantify the number of colonies. In assays with DMH1 treatment, control or DMH1-containing media was replaced every other day. For soft agar assays a 0.5% bottom layer (1:1 with 1% agar and 2X DMEM with 20% FBS) and a 0.3% top layer (1:1 with 0.6% agar and 2× DMEM with 20% FBS) were used. 3,000 live cells per well of a 6-well tissue culture plate were added in the top layer. Media was added initially then replaced every 3 days. After 3 weeks, colonies were stained with nitroblue tetrazolium chloride overnight at 37° C. Once stained, individual wells were photographed, and ImageJ was used to count the number of colonies. All these assays were done in triplicate, and experiments were repeated at least twice. A representative image of each has been shown.

SMAD1 = assay: Western blot of SMAD1 protein after shRNA knockdown; assay type: cell-based, human; settings: melanoma cells, vs shGFP control
Method: Lentiviral infections were performed as described previously (C. J. Ceol et al., The histone methyltransferase SETDB 1 is recurrently amplified in melanoma and accelerates its onset. (Nature 471, 513-517 (2011)). For stable gene knockdowns, we used pLKO-1 lentiviral vectors to deliver short hairpin sequences (shRNAs) (obtained from the RNAi Consortium (TRC)/Broad Institute through the UMMS RNAi core facility) specific for GDF6 (GDF6.1: TRCN0000141818, target sequence: […] (SEQ ID NO:10); GDF6.2: TRCN0000140097, target sequence: […] (SEQ ID NO:11)) or SMAD1 (SMAD1.1: TRCN0000021781, target sequence: […] (SEQ ID NO:12); SMAD1.2: TRCN0000021782, target sequence: […] (SEQ ID NO:13)) or EGFP (TRCN0000072181, target sequence: […] (SEQ ID NO:14)). Virus was made using a second generation lentiviral packaging system in HEK293T cells and titrated using a p24 ELISA kit (Clontech). Cells were infected with virus at a multiplicity of infection of 2.5 with 8 μg/ml polybrene followed by puromycin selection (2 μm/ml) for 2 days in appropriate media. For overexpression, we used Gateway cloning (Life Technologies) to insert the GDF6 ORF (GE life sciences) or SMAD1DVD ORF (provided by Takenobu Katagiri) into the pLenti CMV Hygro DEST (w117-1) vector (provided by Paul Kaufman). Infection and monitoring was performed as described (C. J. Ceol et al., The histone methyltransferase SETDB 1 is recurrently amplified in melanoma and accelerates its onset. (Nature 471, 513-517 (2011)), except that selection was done with 300 ug/ml hygromycin for 10 days.
Protein extracts were prepared as previously described (S. D. Epstein L B, Hunte-McDonough B, harris C A, Cytokines: A pratical approach (Balkwill F R., ed). 81-93 (1991)). Extracts were separated on 12% SDS-PAGE gels. Blots were probed with primary antibodies (GDF6 (Sigma PRS4691; 1:1000), phospho-SMAD1/5/8 (Cell Signaling 13820; 1:1000), SMAD1 (Cell Signaling 9743; 1:500), Total SMAD1/5/8 (Santa Cruz sc-6031-R; 1:1000), FLAG (Sigma F3165, 1:2000), GAPDH (Abcam 8245; 1:2000)) overnight at 4° C., washed five times in TBS plus 0.1% Tween (TBST) and then incubated with the appropriate HRP-conjugated secondary antibody (Jackson Labs) for 1 hour at room temperature. Membranes were washed five times in TBST and visualized on autoradiography film after incubating with ECL reagent (Supersignal West Pico or Supersignal West Femto; Thermo Scientific).

MeWo melanoma cells = assay: Rescue of GDF6-knockdown melanoma cells by recombinant GDF6 in culture media; assay type: cell-based, human; settings: cells treated with shRNAs targeting GDF6
Excerpt: To determine if secreted GDF6 can facilitate the growth of melanoma cells, we knocked down GDF6 using shRNAs and then treated these knockdown cells with recombinant GDF6 protein (FIG. 10).

| Molecule | apoptosis (Annexin5 staining, Caspase 3/7 cleavage) (A375 melanoma cells [1]) | GDF6 protein expression after shRNA treatment (GDF6) | tumor formation (tumor volume) of shRNA-treated cells xenotransplanted into mice (A375 melanoma cells [2]) | xenograft tumor formation, SMAD1 phosphomimic cells (A375 melanoma cells [2]) | xenograft tumor formation, empty vector-transfected cells (A375 melanoma cells [2]) | colonies in clonogenic growth assay after shRNA treatment (A375 melanoma cells [3]) | colonies in clonogenic growth assay, cells expressing SMAD1 phosphomimic (SMAD1DVD) (A375 melanoma cells [3]) | colonies in clonogenic growth assay, empty vector-transfected cells (A375 melanoma cells [3]) | SMAD1 protein expression after shRNA treatment (SMAD1) | SMAD1 protein expression after shRNA treatment (SMAD1; listed as shSMAD1#1) | SMAD1 protein expression after shRNA treatment (SMAD1; listed as shSMAD1#2) | proliferation/survival of GDF6-knockdown melanoma cells with recombinant GDF6 added to media (MeWo melanoma cells) | proliferation/survival of GDF6-knockdown melanoma cells with recombinant GDF6 added to media (MeWo melanoma cells; listed as recombinant GDF6) |
| --- | --- | --- | --- | --- | --- | --- | --- | --- | --- | --- | --- | --- | --- |
| shGDF6#2: shRNA targeting GDF6 (SEQ ID NO:2); GDF6.2 TRCN0000140097 targets SEQ ID NO:11 (GTGTCCATGCTCTCAGACAAA; the letters are possibly those of the target site; listed as Homo sapiens) | elevated apoptosis relative to control cells | more effective than shGDF6#1; also recorded: knockdown of GDF6 protein; also recorded: diminishes expression of GDF6 protein | very little tumor formation; also recorded: formed tumors more slowly than control cells; also recorded: tumor volumes in xenografts decrease with the degree of GDF6 knockdown | tumor formation accelerated after day 15 | only small tumors formed | far fewer colonies | partially restored | few colonies formed |  |  |  |  |  |
| shGDF6#1: shRNA targeting GDF6 (SEQ ID NO:1); GDF6.1 TRCN0000141818 targets SEQ ID NO:10 (GCCAAGTGTTACATTGAGCTT; the letters are possibly those of the target site; listed as Homo sapiens) | elevated apoptosis relative to control cells | partially inhibited GDF6 protein expression; also recorded: knockdown of GDF6 protein; also recorded: diminishes expression of GDF6 protein | tumors intermediate between the control-treated (shEGFP) cells and the shGDF6#2-treated cells; also recorded: tumor volumes in xenografts decrease with the degree of GDF6 knockdown | tumor formation accelerated after day 15 | only small tumors formed | far fewer colonies | partially restored | few colonies formed |  |  |  |  |  |
| shSMAD1-1: shRNA targeting SMAD1 (SEQ ID NO:4); SMAD1.1 TRCN0000021781 targets SEQ ID NO:12 (CGGTTGCTTATGAGGAACCAA; the letters are possibly those of the target site; listed as Homo sapiens) | elevated apoptosis relative to control cells |  | formed only very small tumors; also recorded: tumor volumes in xenografts decrease |  |  | far fewer colonies |  |  | knockdown of SMAD1 protein | significantly decreased; also recorded: decreases expression of SMAD1 protein |  |  |  |
| shSMAD1-2: shRNA targeting SMAD1 (SEQ ID NO:5); SMAD1.2 TRCN0000021782 targets SEQ ID NO:13 (GCCGATGGACACAAACATGAT; the letters are possibly those of the target site; listed as Homo sapiens) | elevated apoptosis relative to control cells |  |  |  |  | far fewer colonies |  |  | knockdown of SMAD1 protein |  | significantly decreased; also recorded: decreases expression of SMAD1 protein |  |  |
| B1 |  |  |  |  |  |  |  |  |  |  |  | rescued the melanoma cells from undergoing GDF6 shRNA-induced apoptosis; also recorded: proliferation of GDF6-knockdown cells was restored | able to sustain their proliferation |
